# Source: patent US20210198277A1, “AMINE-SUBSTITUTED ARYL OR HETEROARYL COMPOUNDS” (Epizyme, Inc., priority 2016, published 2021)
# Molecular target: T1, EHMT1 (Homo sapiens, UniProt Q9H9B1)
# T1 sequence (Q9H9B1 1-1298): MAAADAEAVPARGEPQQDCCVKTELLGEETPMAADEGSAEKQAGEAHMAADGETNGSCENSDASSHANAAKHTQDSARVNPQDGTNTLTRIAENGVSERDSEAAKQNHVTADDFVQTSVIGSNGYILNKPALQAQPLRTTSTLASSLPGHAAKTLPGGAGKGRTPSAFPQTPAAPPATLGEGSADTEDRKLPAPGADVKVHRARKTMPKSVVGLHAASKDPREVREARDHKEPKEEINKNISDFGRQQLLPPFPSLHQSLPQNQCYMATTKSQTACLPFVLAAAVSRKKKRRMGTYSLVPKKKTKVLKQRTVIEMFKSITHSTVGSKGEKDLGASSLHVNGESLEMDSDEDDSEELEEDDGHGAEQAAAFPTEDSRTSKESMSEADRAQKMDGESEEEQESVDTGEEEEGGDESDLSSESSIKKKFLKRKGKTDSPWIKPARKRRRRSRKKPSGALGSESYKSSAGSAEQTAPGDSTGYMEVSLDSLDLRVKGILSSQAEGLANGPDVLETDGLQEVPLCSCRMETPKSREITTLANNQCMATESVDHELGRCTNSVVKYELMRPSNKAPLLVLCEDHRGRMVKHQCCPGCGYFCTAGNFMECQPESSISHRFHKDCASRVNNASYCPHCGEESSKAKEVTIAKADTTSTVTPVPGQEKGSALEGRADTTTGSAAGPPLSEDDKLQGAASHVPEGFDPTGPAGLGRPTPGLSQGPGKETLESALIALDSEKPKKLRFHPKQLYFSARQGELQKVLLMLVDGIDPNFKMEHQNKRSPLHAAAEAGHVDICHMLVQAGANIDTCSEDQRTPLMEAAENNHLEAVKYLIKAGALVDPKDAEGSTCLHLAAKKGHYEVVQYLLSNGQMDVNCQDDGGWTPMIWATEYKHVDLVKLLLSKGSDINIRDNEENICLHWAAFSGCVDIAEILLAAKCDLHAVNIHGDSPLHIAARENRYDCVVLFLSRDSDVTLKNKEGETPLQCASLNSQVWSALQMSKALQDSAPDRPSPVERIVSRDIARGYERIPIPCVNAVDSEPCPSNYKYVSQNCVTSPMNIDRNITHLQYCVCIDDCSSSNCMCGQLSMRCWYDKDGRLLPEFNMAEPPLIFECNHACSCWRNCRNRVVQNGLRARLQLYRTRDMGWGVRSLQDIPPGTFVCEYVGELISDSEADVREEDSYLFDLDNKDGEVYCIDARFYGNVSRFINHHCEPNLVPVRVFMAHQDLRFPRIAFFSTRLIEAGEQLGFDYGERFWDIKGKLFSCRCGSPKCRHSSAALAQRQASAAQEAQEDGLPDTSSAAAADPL
# Assay: EHMT1 enzyme assay on peptide substrate (EHMT1 PEP)
# Type: biochemical
# Conditions: Table III; read-out: EHMT1 PEP (IC50 μM)
row,Structure (SMILES),IC50 [µM]
1,"CNc1cc(C)nc(Nc2ccc(OC)c(O[C@H]3C[C@H](N(C)C)C3)c2)n1 (single isomer, unassigned) [Compound 329, N^2-(3-((1r,3r)-3-(dimethylamino)cyclobutoxy)-4-methoxyphenyl)-N^4,6-dimethylpyrimidine-2,4-diamine]",1 to 10
2,"COc1ccc(Nc2ccc3cnn(C)c3n2)cc1OCCCN1CCCC1 [Compound 257, N-(4-methoxy-3-(3-(pyrrolidin-1-yl)propoxy)phenyl)-1-methyl-1H-pyrazolo[3,4-b]pyridin-6-amine]",> 10
3,"COc1ccc(Nc2cc3c(cn2)ncn3C)cc1OCCCN1CCCC1 [Compound 258, N-(4-methoxy-3-(3-(pyrrolidin-1-yl)propoxy)phenyl)-1-methyl-1H-imidazo[4,5-c]pyridin-6-amine]",> 10
4,"COc1ccc(Nc2nccc(NCC3CCOCC3)n2)cc1OC1CCC2(CC1)CCN(C)C2 (centres unmarked) [Compound 259, N^2-(4-methoxy-3-((2-methyl-2-azaspiro[4.5]decan-8-yl)oxy)phenyl)-N^4-((tetrahydro-2H-pyran-4-yl)methyl)pyrimidine-2,4-diamine]",> 10
5,"COc1ccc(Nc2nccc(NCC3CCOCC3)n2)cc1OC1CCC2(CC1)CN(C)C2 [Compound 260, N^2-(4-methoxy-3-((2-methyl-2-azaspiro[3.5]nonan-7-yl)oxy)phenyl)-N^4-((tetrahydro-2H-pyran-4-yl)methyl)pyrimidine-2,4-diamine]",> 10
6,"CNc1cnnc(Nc2cc(OCCCN3CCCC3)c(OC)cn2)c1 [Compound 322, N^3-(5-methoxy-4-(3-(pyrrolidin-1-yl)propoxy)pyridin-2-yl)-N^5-methylpyridazine-3,5-diamine]",< 0.1
7,"CNc1cc(Nc2cc(OCCCN3CCCC3)c(OC)cn2)cnn1 [Compound 323, N^5-(5-methoxy-4-(3-(pyrrolidin-1-yl)propoxy)pyridin-2-yl)-N^3-methylpyridazine-3,5-diamine]",> 10
8,"CNc1cc(Nc2cc(OCCCN3CCCC3)c(OC)cn2)ncn1 [Compound 324, N^4-(5-methoxy-4-(3-(pyrrolidin-1-yl)propoxy)pyridin-2-yl)-N^6-methylpyrimidine-4,6-diamine]",1 to 10
9,"CNc1cc(Nc2cc(OCCCN3CCCC3)c(OC)cn2)nc(C)n1 [Compound 325, N^4-(5-methoxy-4-(3-(pyrrolidin-1-yl)propoxy)pyridin-2-yl)-N^6,2-dimethylpyrimidine-4,6-diamine]",1 to 10
10,"COc1cnc(Nc2nc(C)nc3[nH]ccc23)cc1OCCCN1CCCC1 [Compound 326, N-(5-methoxy-4-(3-(pyrrolidin-1-yl)propoxy)pyridin-2-yl)-2-methyl-7H-pyrrolo[2,3-d]pyrimidin-4-amine]",0.1 to 1
11,"CNc1nc(Nc2ccc(OC)c(OCCCN3CCCC3)c2)nc2c1CCC2 [Compound 328, N^2-(4-methoxy-3-(3-(pyrrolidin-1-yl)propoxy)phenyl)-N^4-methyl-6,7-dihydro-5H-cyclopenta[d]pyrimidine-2,4-diamine]",0.1 to 1
12,CNc1cc(C)nc(Nc2ccc(OC)c(OC[C@H]3C[C@H](N(C)C)C3)c2)n1 [Compound 330],1 to 10
13,"CNc1cc(C)nc(Nc2ccc(OC)c(O[C@H]3C[C@H](CN(C)C)C3)c2)n1 [Compound 331, N^2-(3-((1r,3r)-3-((dimethylamino)methyl)cyclobutoxy)-4-methoxyphenyl)-N^4,6-dimethylpyrimidine-2,4-diamine]",> 10
14,"CNc1cc(C)nc(Nc2cnc(OC)c(OCCCN3CCCC3)c2)n1 [Compound 332, N^2-(6-methoxy-5-(3-(pyrrolidin-1-yl)propoxy)pyridin-3-yl)-N^4,6-dimethylpyrimidine-2,4-diamine]",< 0.1
15,CCn1nc(Nc2nccc3[nH]ccc23)cc1COCCN1CCCC1 [Compound 333],1 to 10
16,"COc1cnc(Nc2ccnc3[nH]ccc23)cc1OCCCN1CCCC1 [Compound 335, N-(5-methoxy-4-(3-(pyrrolidin-1-yl)propoxy)pyridine-2-yl)-1H-pyrrolo[2,3-b]pyridin-4-amine]",0.1 to 1
17,"COc1cnc(Nc2cc(C)nc3[nH]ccc23)cc1OCCCN1CCCC1 [Compound 336, N-(5-methoxy-4-(3-(pyrrolidin-1-yl)propoxy)pyridin-2-yl)-6-methyl-1H-pyrrolo[2,3-b]pyridin-4-amine]",0.1 to 1
18,COc1ccc(Nc2nc(C)c(F)c(NC(C)C)n2)cc1OCCCN1CCCC1 [Compound 337],0.1 to 1

row,Structure (SMILES),IC50 [µM]
1,COc1ccc(Nc2nccc(-n3nc(C)cc3C)n2)cc1OCCCN1CCCC1 [Compound 338],> 10
2,CNCc1cnc(Nc2ccc(OC)c(OCCCN3CCCC3)c2)nc1 [Compound 339],> 10
3,COc1ccc(Nc2ccnc(NCC3CCN(C(C)=O)CC3)n2)cc1OCCCN1CCCC1 [Compound 340],0.1 to 1
4,COc1ccc(Nc2ccc3cnn(C)c3c2)cc1OCCCN1CCCC1 [Compound 341],> 10
5,COc1ccc(Nc2ccc3ncn(C)c3n2)cc1OCCCN1CCCC1 [Compound 342],> 10
6,COc1ccc(Nc2ncc3ncn(C)c3n2)cc1OCCCN1CCCC1 [Compound 343],> 10
7,COc1ccc(Nc2cccc3ncnn23)cc1OCCCN1CCCC1 [Compound 344],> 10
8,COc1ccc(Nc2ccc3nn(C)cc3c2)cc1OCCCN1CCCC1 [Compound 345],> 10
9,COc1ccc(Nc2cccc3cn(C)nc23)cc1OCCCN1CCCC1 [Compound 346],> 10
10,COc1ccc(Nc2ccc3ncc(C)n3n2)cc1OCCCN1CCCC1 [Compound 347],1 to 10
11,COc1ccc(Nc2nccc(-c3cnn(C)c3)n2)cc1OCCCN1CCCC1 [Compound 348],> 10
12,COc1ccc(Nc2nccc(Nc3cccc(F)c3)n2)cc1OCCCN1CCCC1 [Compound 349],1 to 10
13,COc1ccc(Nc2nccc(NCC3CCOCC3)n2)cc1NCCCN1CCCC1 [Compound 350],0.1 to 1
14,COc1ccc(OCCCN2CCCC2)cc1Nc1nccc(NCC2CCOCC2)n1 [Compound 351],> 10
15,COc1ccc(NCCCN2CCCC2)cc1Nc1nccc(NCC2CCOCC2)n1 [Compound 352],> 10
16,CNc1ccnc(Nc2ccc(OC)c(OCCCN3CC[C@@H](F)C3)c2)n1 [Compound 353],0.1 to 1
17,CNc1ccnc(Nc2ccc(OC)c(OCCCN3CC(F)C3)c2)n1 [Compound 354],0.1 to 1

# Same assay, conditions: Table VI; read-out: EHMT1 PEP IC50
row,Structure (SMILES),IC50 [µM]
1,CNc1cc2nccn2c(Nc2cc(OCCCN3CCCC3)c(OC)cn2)n1 [Compound 611],1 to 10
2,CCN1CC(COc2cc(Nc3nc(C)cc4[nH]ccc34)ncc2OC)C1 [Compound 613],< 0.1
3,CNc1cc(C)nc(Nc2cc(OCCCN3CCCC3)c3nc(C)cn3c2)n1 [Compound 616],0.1 to 1
4,CNc1cc(C)nc(Nc2cc(OCCCN3CCCC3)c3nccn3c2)n1 [Compound 618],0.1 to 1
5,COc1cc2c(C3CCN(C)CC3)cc(C#N)nc2cc1OCCCN1CCCC1 [Compound 790],< 0.1
6,CNc1cc(C)nc(Nc2cc(OCCCN3CCCC3)c3oncc3c2)n1 [Compound 793],> 10
7,COc1ccc(Nc2nn(C)c3cnccc23)cc1OCCCN1CCCC1 [Compound 794],> 10
8,COc1cnc(Nc2nn(C)c3cnccc23)cc1OCCCN1CCCC1 [Compound 795],> 10
9,COc1ccc(Nc2cc(C)[nH]n2)cc1OCCCN1CCCC1 [Compound 796],> 10
10,COc1ccc(Nc2cc(C)n(C)n2)cc1OCCCN1CCCC1 [Compound 797],> 10
11,CNc1cc(C)nc(Nc2cnc(OC)c(OC[C@@H]3CCN(C4CCC4)C3)c2)n1 [Compound 798],< 0.1
12,COc1ccc(Nc2nc(C)cc(NC(C)C)n2)cc1OC[C@@H]1CCNC1 [Compound 800],< 0.1
13,COc1cnc(Nc2nccc3nccn23)cc1OC[C@@H]1CCNC1 [Compound 801],> 10
14,CNc1cc(C2CCOCC2)c2cc(OC)c(OC[C@@H]3CCNC3)cc2n1 [Compound 802],< 0.1
15,CNc1cc(C2CCOCC2)c2cc(OC)c(OC[C@@H]3CCN(C)C3)cc2n1 [Compound 803],< 0.1
16,COc1cc(NC2CCOCC2)ncc1OCC1CCNC1 (centres unmarked) [Compound 806],1 to 10
17,COc1cc(N(C)C2CCOCC2)ncc1OCC1CCNC1 (centres unmarked) [Compound 808],1 to 10
18,CNc1cc(C2CCN(C(C)=O)CC2)c2cc(OC)c(OCCCN3CCCC3)cc2n1 [Compound 809],< 0.1
